Results on three compounds are retold here after patent publication US8637528B2, “Use of PDE7 inhibitors for the treatment of movement disorders” (Omeros Corporation, priority 2007, dated 2014).

“Also recorded” adds a separate entry of the source.

A short description of data set [1]: plasma and brain concentration in mice after intraperitoneal injection (LC/MS/MS). In kind it is in vivo, mouse. Here is the method:
Adult male C57BL/6J; retired breeders, aged between 7-9 months (Jackson Laboratory, Bar Harbor, Me., USA), singly housed.
Just prior to the harvesting of tissues, mice were anesthetized with avertin. Samples of whole brain or plasma were collected from three animals per time point at 15 minutes, 30 minutes, 60 minutes, 120 minutes, and 240 minutes after injection. Blood samples were collected by retro-orbital bleeding. Plasma was prepared and red cells were removed by centrifugation. The mice were perfused with saline to remove contaminating blood. The brains were removed and rapidly frozen in liquid nitrogen for subsequent analysis. The plasma and brain samples were stored at −80° C. or on dry ice and the concentration of compound was determined by LC/MS/MS analysis as follows:
Whole brain tissue was homogenized using a Mini-Beaddeater-8™ (BioSpec Products, Bartlesville, Okla.). Plasma or homogenized brain samples were precipitated with acetonitrile and filtered in 96-well format using Captiva 0.20 micron filtration plates (Varian Corp, Lake Forest, Calif.). Filtrates were evaporated under nitrogen to dryness at 50° C. and were then reconstituted for LC-MS analysis.
Quantitative measurements for inhibitory compound in plasma and brain samples were obtained using a Thermo Ultra triple quadrupole mass spectrometer (Thermo Fisher Scientific, San Jose, Calif.), utilizing electrospray ionization in the multiple reaction monitoring mode of data acquisition. Sample extracts were injected onto a 2.1×30 mm packed Xterra C18-MS high pressure liquid chromatography (HPLC) column (Waters Corp, Milford, Mass.). The mobile phase eluting the compound from the HPLC column was applied using a Thermo Surveyor MS Plus HPLC quaternary pumping system (Thermo Fisher Scientific, San Jose, Calif.) and a HTC PAL autoinjector (LEAP Technologies, Chapel Hill, N.C.).

In a further data set the target is PDE4A (Homo sapiens (Human), UniProt P27815). The data set is described as follows: PDE selectivity SPA assay, PDE4A. The format is biochemical. The conditions noted are these: IC50 against PDE4A divided by IC50 against PDE7A. Here is the method:
(§1) Phosphodiesterase activity was measured by a scintillation proximity assay (SPA, GE Healthcare: Product Code TRKQ7100) with [^3H]-cAMP as the substrate for PDEs 3A, 4A, 8A, or with [^3H]-cGMP as the substrate for PDEs 1B, 2A, 5A, 9A, 10A and 11A. Purified human PDE1B, PDE2A, PDE3A, PDE4A, PDE5A, PDE8A, PDE9A and PDE11A4 were obtained from BPS Bioscience, San Diego, Calif. Purified murine PDE10A was also obtained from BPS Biosciences. […] Therefore, the results obtained using murine PDE10A are believed to be representative of human PDE10.
(§2) The purified PDE enzymes were each diluted and stored in a solution containing 25 mM Tris-Cl (pH 8.0), 100 mM NaCl, 0.05% Tween 20, 50% glycerol, and 3 mM DTT. PDE assays were carried out in the following assay cocktail (final concentrations): 50 mM Tris-Cl (pH 8.0), 8.3 mM MgCl2, 1.7 mM EGTA, 0.5 mg/ml BSA, 2.5% DMSO and between 0.2 ng and 6 ng of the PDE protein (depending on the enzyme activity) in a final volume of 0.1 mL.
(§3) Reactions were initiated by addition of enzyme, incubated for 20 minutes at 30° C. and then terminated by the addition of 50 μl of SPA beads containing Zn^2+.
(§4) The mixture was shaken, and allowed to settle for 3 hours. Then the production of [^3H]-AMP or [^3H]-GMP from the substrate was quantitated by scintillation counting in a Wallac® plate counter. […]

A further data set deals with PDE7A (Homo sapiens (Human), UniProt Q13946). Briefly: initial PDE7A inhibition assay, different assay methodology. In kind it is biochemical. As to conditions: read-out: PDE7A IC50 in the initial assay work.
Chain of PDE7A (Q13946 whole entry, species assumed): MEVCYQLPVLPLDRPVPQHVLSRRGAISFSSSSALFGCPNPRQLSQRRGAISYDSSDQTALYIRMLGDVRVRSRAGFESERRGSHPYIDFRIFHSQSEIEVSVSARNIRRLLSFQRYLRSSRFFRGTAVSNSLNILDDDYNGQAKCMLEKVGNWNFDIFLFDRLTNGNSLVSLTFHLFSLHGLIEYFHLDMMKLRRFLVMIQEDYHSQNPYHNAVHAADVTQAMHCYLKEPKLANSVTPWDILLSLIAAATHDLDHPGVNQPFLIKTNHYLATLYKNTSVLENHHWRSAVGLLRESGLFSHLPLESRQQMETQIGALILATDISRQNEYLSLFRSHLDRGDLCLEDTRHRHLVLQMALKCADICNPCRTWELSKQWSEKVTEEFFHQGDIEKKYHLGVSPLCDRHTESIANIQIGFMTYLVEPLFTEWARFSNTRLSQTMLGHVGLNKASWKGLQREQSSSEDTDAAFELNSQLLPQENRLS
In a further data set the target is PDE1B (Homo sapiens (Human), UniProt Q01064). The data set is described as follows: PDE selectivity SPA assay, PDE1B. In kind it is biochemical. As to conditions: IC50 against PDE1B divided by IC50 against PDE7A. As for the experimental part: as §1, §2, §3, §4
Chain of PDE1B (Q01064 whole entry): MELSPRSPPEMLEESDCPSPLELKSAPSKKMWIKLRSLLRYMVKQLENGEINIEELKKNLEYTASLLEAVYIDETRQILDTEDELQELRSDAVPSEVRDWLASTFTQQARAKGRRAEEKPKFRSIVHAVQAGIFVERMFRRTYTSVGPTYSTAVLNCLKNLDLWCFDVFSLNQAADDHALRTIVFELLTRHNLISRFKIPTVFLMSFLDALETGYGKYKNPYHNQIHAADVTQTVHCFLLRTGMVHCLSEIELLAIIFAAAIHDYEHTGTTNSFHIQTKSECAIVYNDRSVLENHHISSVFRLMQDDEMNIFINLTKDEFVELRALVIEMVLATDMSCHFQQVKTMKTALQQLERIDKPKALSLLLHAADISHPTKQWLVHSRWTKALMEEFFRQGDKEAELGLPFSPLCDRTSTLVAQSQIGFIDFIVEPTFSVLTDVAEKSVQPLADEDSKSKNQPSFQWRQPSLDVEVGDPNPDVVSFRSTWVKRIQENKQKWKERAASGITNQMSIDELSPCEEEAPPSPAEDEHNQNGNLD
In another data set the target is PDE11A (Homo sapiens (Human), UniProt Q9HCR9). Briefly: PDE selectivity SPA assay, PDE11A. In kind it is biochemical. The conditions noted are these: IC50 against PDE11A divided by IC50 against PDE7A.
Chain of PDE11A (Q9HCR9 whole entry): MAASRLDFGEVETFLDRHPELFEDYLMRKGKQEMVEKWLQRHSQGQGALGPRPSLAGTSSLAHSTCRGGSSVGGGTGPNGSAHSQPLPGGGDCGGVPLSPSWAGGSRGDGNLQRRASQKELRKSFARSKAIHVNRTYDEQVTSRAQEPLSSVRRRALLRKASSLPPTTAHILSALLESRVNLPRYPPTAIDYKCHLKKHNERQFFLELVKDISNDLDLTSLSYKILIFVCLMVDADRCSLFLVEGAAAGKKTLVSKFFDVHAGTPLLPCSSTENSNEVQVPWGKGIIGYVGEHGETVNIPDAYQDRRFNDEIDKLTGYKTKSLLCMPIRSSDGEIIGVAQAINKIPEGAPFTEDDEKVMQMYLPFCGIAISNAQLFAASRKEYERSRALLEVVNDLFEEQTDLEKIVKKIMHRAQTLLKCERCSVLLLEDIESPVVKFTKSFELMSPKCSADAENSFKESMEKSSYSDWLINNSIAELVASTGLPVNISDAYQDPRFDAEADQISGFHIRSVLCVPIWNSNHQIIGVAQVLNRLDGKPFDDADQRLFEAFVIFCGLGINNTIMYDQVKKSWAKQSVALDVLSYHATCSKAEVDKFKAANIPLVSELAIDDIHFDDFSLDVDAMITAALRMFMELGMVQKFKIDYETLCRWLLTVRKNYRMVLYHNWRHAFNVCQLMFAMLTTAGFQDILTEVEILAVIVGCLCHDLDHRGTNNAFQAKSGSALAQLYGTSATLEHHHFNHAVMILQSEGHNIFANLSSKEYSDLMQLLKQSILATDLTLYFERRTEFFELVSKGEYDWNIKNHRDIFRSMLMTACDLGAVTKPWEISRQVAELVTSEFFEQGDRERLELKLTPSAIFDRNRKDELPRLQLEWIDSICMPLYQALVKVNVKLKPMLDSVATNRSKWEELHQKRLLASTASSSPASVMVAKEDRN
Another data set relates to MPTP-treated mice. The data set is described as follows: inked paw stride length in the MPTP mouse model of Parkinson's disease, panel of PDE7 inhibitors (Example 7). In kind it is in vivo. Here is the method:
Adult male C57BL/6J; retired breeders, aged between 7-9 months Charles River Laboratories, Wilmington, Mass.), singly housed. Three groups of 35 mice were tested in series one week apart.
Mice received 2 subcutaneous injections of methylphenyltetrahydropyridine (“MPTP”) at a dose of 15 mg/kg (free base) with a 10-12 hour interval between injections. Control mice (sham lesion groups) were administered saline instead of MPTP.
Prior to injection with MPTP or saline, animals were pre-trained to walk across a clean sheet of paper into their home cage without stopping. For assessment of stride length, animals had their forepaws placed in black ink and the length of forepaw steps during normal walking (in a straight line only) was measured. The animals were immediately put back into their home cage upon completion of the task. Stride length was determined by measuring the distance between each step on the same side of the body, measuring from the middle toe of the first step to the heel of the second step. An average of at least four clear steps was calculated. The schedule for this experiment was as follows:
Because of the wide variation in aqueous solubility among these compounds, a number of different formulations were required. L-dopa was administered in 100 μl of phosphate buffered saline. For animals treated with L-dopa, the dopa decarboxylase inhibitor benserazide (100 μL of a 12.5 mg/kg solution) was administered 15 minutes prior to treatment with L-dopa in order to minimize the destruction of L-dopa in the peripheral blood. […] Therefore, the treatment effects observed are due solely to the PDE7 inhibitory compounds themselves. […] This phenomenon of “overshoot” has also been observed with L-dopa in MPTP-treated mice in which lower doses ameliorate hypoactivity while higher doses induce dyskinesias or uncontrolled movements (Lundblad M. et al., Exp Neurol.194(1):66-75 (2005); Pearce R. K. et al., Mov Disord. 10(6):731-40 (1995); Fredriksson, A. et al, Pharmacol-Toxicol. 67(4): 295-301 (1990)).
Retired breeder male mice were treated with either saline or 2×15 mg/kg MPTP to induce a Parkinsonian state (neurochemical loss of dopamine with corresponding behavioral deficits). On day one baseline stride length was measured and then mice were treated with either MPTP or with saline as a control. On day eight stride length was measured again, and the control value for stride length was derived from the stride length of saline-treated animals. The animals were then divided randomly into treatment groups. Compound OM955 (compound 3) was tested at 0.1 mg/kg, at 0.5 mg/kg, and at 0.1 mg/kg in combination with 1 mg/kg L-dopa.

The mark [2] stands for this setting: mouse, 1.0 mg/kg IP, 15 minutes.
[3] abbreviates: mouse, 1.0 mg/kg IP, 30 minutes post injection.

Chain of PDE4A (P27815 whole entry): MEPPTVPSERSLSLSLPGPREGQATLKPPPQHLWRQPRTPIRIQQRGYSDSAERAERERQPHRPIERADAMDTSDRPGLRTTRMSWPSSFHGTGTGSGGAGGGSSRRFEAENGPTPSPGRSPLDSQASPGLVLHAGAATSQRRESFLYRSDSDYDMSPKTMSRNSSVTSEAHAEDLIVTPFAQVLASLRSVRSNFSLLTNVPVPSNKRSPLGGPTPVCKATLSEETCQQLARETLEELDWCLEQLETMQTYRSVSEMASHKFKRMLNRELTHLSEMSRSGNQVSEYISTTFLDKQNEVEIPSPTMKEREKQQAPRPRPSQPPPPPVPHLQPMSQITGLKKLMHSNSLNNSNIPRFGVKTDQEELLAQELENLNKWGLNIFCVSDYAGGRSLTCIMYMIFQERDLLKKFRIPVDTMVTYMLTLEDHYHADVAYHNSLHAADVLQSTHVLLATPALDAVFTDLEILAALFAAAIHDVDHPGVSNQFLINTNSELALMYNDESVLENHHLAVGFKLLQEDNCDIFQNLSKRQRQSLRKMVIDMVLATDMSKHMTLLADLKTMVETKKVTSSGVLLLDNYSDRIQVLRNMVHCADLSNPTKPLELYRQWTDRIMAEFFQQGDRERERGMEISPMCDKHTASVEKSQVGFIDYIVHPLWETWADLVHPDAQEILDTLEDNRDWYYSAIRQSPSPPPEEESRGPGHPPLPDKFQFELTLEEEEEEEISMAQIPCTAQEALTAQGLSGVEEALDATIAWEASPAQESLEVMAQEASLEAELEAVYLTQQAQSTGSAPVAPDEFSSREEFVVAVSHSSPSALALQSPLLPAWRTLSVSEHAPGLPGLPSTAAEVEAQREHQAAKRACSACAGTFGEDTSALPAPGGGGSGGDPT

For `COc1cc(N)ccc1-c1cc2c(c(=O)[nH]1)C(C1CCCCC1)N=[N+]2C` (centres unmarked) [OM69], in data set [1] (setting [2]), the brain tissue concentration stood at 25 ng/g and the plasma concentration is 51 ng/g. In data set [1] (setting [3]), this compound displayed a peak brain level of 44 ng/g and a peak plasma level of 59 ng/g. The “brain to plasma ratios” value in data set [1] (mouse, 1.0 mg/kg IP, all time points with levels above the lower limit of quantitation) is 45-75%. For the same compound, the “brain concentration converted to molar” value in data set [1] (mouse, 30 minutes after injection of a 1 mg/kg dose) is given as 124 nM. Further, the “Ratio of Total Brain Exposure/Total Plasma Exposure” value in data set [1] (mouse, IP, AUC brain / AUC plasma, 1.0 mg/kg OM69, 10.0 mg/kg OM056, 30.0 mg/kg OM955 and OM956) stood at 0.78. Besides, the “expected maximal brain concentration” value in data set [1] (mouse, dose of 0.1 mg/kg, assuming linearity of uptake and uniform brain distribution) is 12.4 nM. Besides, in data set [1] (previously determined from pharmacokinetic studies), the “time to wash out of mice” value is no more than 12 h. Further, the “Fold Selectivity for PDE7A versus PDE4A” value on PDE4A is on record as 6500 fold. On PDE7A, the IC50 amounted to 3.5 nM. For the same compound, the “Fold Selectivity for PDE7A versus PDE1B” value on PDE1B is given as 29,608 fold. Moreover, the “Fold Selectivity for PDE7A versus PDE11A” value at PDE11A came to 7070 fold.

As for `N[C@@H](Cc1ccc(O)c(O)c1)C(=O)O` [L-dopa, levodopa, reference compound], the “effect on stride length, in words” value in the data set on MPTP-treated mice (L-dopa 1 mg/kg alone, 20 minutes after administration) is listed as “do not increase stride length when administered alone; also recorded: does not increase stride length in MPTP mice to a significant level”.

As for `O=C1Nc2c(Cl)ccc(OCCO)c2C2(CCCCC2)N1` [OM955], in data set [1] (mouse, at 0.5 mg/kg, analogous calculation), the “maximal brain concentration at dose where efficacy was observed” value is on record as 292 nM. In addition, on PDE4A, the “Fold Selectivity for PDE7A versus PDE4A” value was 113 fold. Further, the “effect on stride length, in words” value is “do not increase stride length when administered alone; also recorded: does not increase stride length in MPTP mice to a significant level” in the data set with MPTP-treated mice (OM955 0.1 mg/kg alone, 20 minutes after administration) and “statistically significant improvement in the stride length; also recorded: fully restored to that of unlesioned animals; also recorded: full recovery of baseline stride length” in the data set on MPTP-treated mice (OM955 0.5 mg/kg, 20 minutes (and one hour) after injection). Also, the “Fold Selectivity for PDE7A versus PDE1B” value at PDE1B is 342 fold. Also, the “Fold Selectivity for PDE7A versus PDE11A” value at PDE11A is on record as greater than 192 fold.
